Legend:
[1] = system: increase in liver triglycerides induced by CCl4; test: Carbon tetrachloride-induced liver intoxication tests (liver triglycerides); assay type: in vivo; conditions: rats, CCl4 1 ml.kg^-1 i.p. (20% in olive oil), treated three consecutive days before
Protocol: Another indicator of CCl4 toxicity in the liver is provided by the increased hepatic concentration of triglycerides.
The CCl4 intoxication was induced by giving fasting rats an intraperitoneal injection of 1 ml.kg^-1 of a suspension of 20% CCl4 in olive oil. Prior to CCl4 intoxication the rats were treated for three consecutive days with glutathione (G=50 mg/kg), or with propionyl L-carnitine (PC=100 mg/kg), or with yeast containing 10% glutathione (YG=500 mg/kg), or with a combination of amino acids (AA=glutamic acid 50 mg, cysteine 25 mg, glycine 50 mg, magnesium 5 mg). or with the complete combination CC (CC=PC+G+AA), or with the complete yeast combination CYC (CYC=PC+YG+AA). After administration of CCl4, the livers were excised from the decapitated animals and were used to measure the triglyceride concentration according to the method described by Donabedian (Donabedian R. K., Clin. Chem., 20:632, 1974).

[2] = system: hypertriglyceridaemia induced in the rat; test: Protection against experimental hypertriglyceridaemia (fructose) in the rat; assay type: in vivo; conditions: fructose 3 g/kg oral; for Hypertriglyceridaemia (blood triglycerides): five hours after, oral treatment three days before and three hours after
Excerpt: The method used for this test was that described by Carlson (Carlson L. A. V., J. Atheroscl. Res., 8:667, 1968) and modified as described in Atherosclerosis, 16:349, 1972. According to this test oral administration of 3 g/kg of fructose in the rat induces a substantial increase in both liver and serum triglycerides five hours after administration.
The aim of this test was to assess whether the administration of the components of the composition according to the invention, when used alone or in combination, were capable of leading to a reduction in this triglyceride abnormality which is regarded as underlying severe liver dysfunctions as well as atherosclerosis.
To this end, various groups of rats were treated with glutathione (G=50 mg/kg), with propionyl L-carnitine (PC=50 mg/kg), or with yeast containing 10% glutathione (YG=500 mg/kg), or with an amino acid mixture (AA=glutamic acid 50 mg/kg, cysteine 25 mg/kg, glycine 100 mg/kg+magnesium 5 mg/kg), or with a combination of these various components (at the same doses) without yeast (CC) or with yeast (CYC). The treatment was given orally on the three days preceding fructose administration and for three hours after its administration. Five hours after fructose administration all animals were sacrificed and blood samples were used to assay triglycerides according to the method described by Donabedian (Donabedian R. K., Clin. Chem., 20:632, 1974).

[3] = system: acetaminophen-induced mortality; test: Acetaminophen (paracetamol) induced toxicity tests; assay type: in vivo; conditions: mice; for Protection against the mortality induced by acetaminophen (in words): acetaminophen 600 mg/kg
Protocol: Various groups of male mice received oral administrations of 600 mg/kg acetaminophen, which is a dose sufficient to cause death within 24 hours in 50% of the animals thus treated.
At the same time as the acetaminophen administration, one group of animals (group G) were administered glutathione (G) and a second (group YG) were administered yeast containing 10% glutathione (YG); a third group (group PC) were administered propionyl L-carnitine (PC); a fourth group (group AA) were administered a combination of glutamic acid, cysteine, glycine and magnesium (AA); a fifth group (group CC) were administered a first combination according to the invention, called the "complete combination" (CC), consisting of PC+G+AA, while a sixth group (group CYC) were administered a second combination according to the invention, called the "complete yeast combination" (CYC), consisting of PC+YG+AA.
These synergistic effects appear even more marked when the mice are administered a 900 mg/kg acetaminophen dose, which causes the deaths of 100% of the animals. In this case, only administration of the complete yeast combination, CYC, protects more than 50% of the animals treated against death (see Table 2).
The protection against acetaminophen at the dose of 900 mg/kg afforded by the new composition was even more marked when the animals were treated for 7 consecutive days prior to acetaminophen administration with the various components of the combination (see Table 3).

[4] = system: glycerol-induced kidney failure; test: Activity against glycerol-induced nephropathy; assay type: in vivo, Male Sprague-Dawley rats; conditions: for Protective effect against glycerol-induced kidney lesions (in words): rat; for Urea: rat plasma 24 hours after glycerol injection (10 cc/kg of 50% w/v), treated daily three days before
Protocol: The method used in this test was that described by Young (Young J. H. K., Meth. Find. Exp. Clin. Pharmacol., 13:23, 1991). According to this test, a glycerol injection induces kidney failure and nephropathy in the rat. This method was used to assess the protective effects of the combination according to the invention on the kidney. Male Sprague-Dawley rats were used, which, after being deprived of drinking water for 24 hours, were injected with 10 cc/kg of a 50% w/v solution of glycerol and water. After the injection, the animals thus treated were allowed to drink. After 24 hours, blood samples were taken from the animals and, after centrifuging, the plasma creatinine concentration was assayed (according to the method described by Taussky H. H., Clin. Chem. Acta, 1:210, 1956) and urea by means of reaction with diacetylmonoxime (Henry R. Y., Cannon D. C. Eds., Clinical Chemistry, 2 Ed. Harper & Rowe, London 1974). Propionyl L-carnitine (100 mg/kg), glutathione (50 mg/kg) or yeast containing glutathione (500 mg/kg), amino acids (25 mg/kg each), yeast (500 mg/kg) and a combination of these at the same doses were administered daily on the three days preceding the test.

[5] = system: CCl4-intoxicated liver cell cultures; test: Carbon tetrachloride (CCl4) intoxication tests on isolated rat liver cells; assay type: cell-based; conditions: for Toxic effects of carbon tetrachloride (in words): CCl4 10 mmol.L^-1
Excerpt: The cells used in these tests were isolated rat liver cells after perfusion with collagenase according to the method described by Seglen (Seglen F. O., Method Cell. Biol. Chem. 264:4747, 1989). Approximately 4-6×10^8 viable liver cells were collected, calculated by exclusion of non-viable cells by means of trypan blue.
The cells thus isolated were suspended in 25 cm^2 plastic receptacles in the presence of antibiotics and 10% inactivated fetal calf serum. To the cell suspension thus obtained was added CCl4 (10 mmol.L^-1), glutathione (GSH 20 mg.L^-1), propionyl L-carnitine (100 mg.L^-1) or glutathione combined with propionyl L-carnitine. After a 4-h incubation the percentage of dead cells was estimated by release of lactate dehydrogenase, as described by Casini et al. (Casini et al., J. Biol. Chem., 257:6721, 1982).
The cytological examination of the liver cells was done under both the light and electron microscope after fixation in 3% formalin and paraffin for light microscopy and 3% glutaraldehyde and 1% osmium tetroxide for electron microscopy.

[6] = system: glutathione-depleted rats; test: Glutathione uptake and concentration in blood of glutathione-depleted (DEM) animals; assay type: in vivo, Sprague-Dawley male rats; conditions: rats depleted with diethylmaleate (DEM) 1 cc/kg i.p.; oral treatment half an hour after; measured 4 h after
Protocol: To this end, the glutathione content in the blood of a group of Sprague-Dawley male rats was reduced by means of the administration of diethylmaleate (DEM)a depletor of glutathione, according to the technique described by Plummer (Plummer J., Chemical depletion of glutathione "in vivo", Methods in Enzymology, 77:50, 1981). DEM was administered intraperitoneally to fasting rats at the dose of 1 cc/kg. Half an hour after injection of diethylmaleate, glutathione alone (50 mg/kg), or yeast containing 10% glutathione (500 mg/kg), or 50 mg/kg of glutathione together with 500 mg of yeast not containing glutathione were administered orally. Another group of rats received glutathione amino acid precursors (glutamic acid 50 mg/kg, glycine 50 mg/kg, cysteine 50 mg/kg, magnesium 10 mg/kg) or the complete combination according to the invention at the same doses as described here above.
After four hours blood samples were taken from the animals thus treated and the plasma glutathione concentration was measured.

[7] = system: glutathione (GSH) concentration; test: Effects on glutathione (GSH) concentration in young and elderly rats; assay type: in vivo
Protocol: Since the metabolic and enzymatic activity of glutathione is known to be reduced in elderly rats and this reduction is regarded as one of the causes of ageing, the effect of the administration of the new composition or its individual components on glutathione concentrations in the plasma and liver of young and elderly rats was evaluated.
For this test two different groups of rats were used: young rats (2-3 months) and elderly rats (8-10 months). The glutathione (GSH) concentration was calculated in both groups according to the technique described by Moron (Moron M. S., Biochem. Biophys. Acta, 582:67, 1979) both before the start of the test and after 15 days' daily administration of propionyl L-carnitine (100 mg/kg), glutathione (50 mg/kg), propionyl L-carnitine with glutathione or with yeast containing 10% glutathione (500 mg/kg), amino acids (500 mg/kg) or the combination according to the invention.

[8] = acetaminophen 900 mg/kg, dead/total, Table 2
[9] = acetaminophen 900 mg/kg, dead/total, table at the place of Table 3, printed as a repeat of TABLE 2
[10] = oral acetaminophen 600 mg/kg, substance given at the same time, mortality 24 hours after treatment (dead/total), Table 1
[11] = CCl4-intoxicated liver cell cultures, table at the place of Table 5, printed as a repeat of TABLE 4
[12] = isolated rat liver cells, CCl4 10 mmol.L^-1, 4-h incubation, lactate dehydrogenase release, GSH 20 mg.L^-1, propionyl L-carnitine 100 mg.L^-1, Table 4
[13] = elderly rats (8-10 months), liver, after 15 days' daily administration, Table 9
[14] = elderly rats (8-10 months), liver, before the start of the test, Table 9
[15] = elderly rats, 15 days, table at the place of Table 10, printed as a repeat of TABLE 9
[16] = elderly rats, time 0, table at the place of Table 10, printed as a repeat of TABLE 9
[17] = young rats (2-3 months), liver, after 15 days' daily administration, Table 9
[18] = young rats (2-3 months), liver, before the start of the test, Table 9
[19] = young rats, 15 days, table at the place of Table 10, printed as a repeat of TABLE 9
[20] = young rats, time 0, table at the place of Table 10, printed as a repeat of TABLE 9

Row | Compound | Triglycerides (liver) [1] [mg/g] | Efficacy on serum triglyceride levels induced by fructose (in words) [2] | Hypertriglyceridaemia (blood triglycerides) [2] [mg/100 ml] | Protection against the mortality induced by acetaminophen (in words) [3] | Mortality [3, 8] | Mortality [3, 9] | Mortality [3, 10] | Protective effect against glycerol-induced kidney lesions (in words) [4] | Urea [4] [mg/100 ml] | % dead cells [5, 11] [%] | Toxic effects of carbon tetrachloride (in words) ([5]; isolated rat liver cells) | % dead cells [5, 12] [%] | Glutathione (GSH) concentration in plasma [6] [mg/dL] | Glutathione concentration in liver, elderly rats, time 15 days [7, 13] [GSH ng/mg protein] | Glutathione concentration in liver, elderly rats, time 0 [7, 14] [GSH ng/mg protein] | Glutathione concentration in liver, elderly rats, time 15 days [7, 15] [GSH ng/mg protein] | Glutathione concentration in liver, elderly rats, time 0 [7, 16] [GSH ng/mg protein] | Glutathione concentration in liver, young rats, time 15 days [7, 17] [GSH ng/mg protein] | Glutathione concentration in liver, young rats, time 0 [7, 18] [GSH ng/mg protein] | Glutathione concentration in liver, young rats, time 15 days [7, 19] [GSH ng/mg protein] | also measured
1 | N[C@@H](CCC(=O)N[C@@H](CS)C(=O)NCC(=O)O)C(=O)O [G, N-(N-L-L-γ-glutamyl-cysteinyl) glycine] | 18.7 ± 2.1 | small efficacy | 180 ± 5.9 | partial protection | 7/10 | 7/10 | 4/10 | fairly good protective effect | 79.9 ± 9.9 | 55 ± 5 | capable of reducing the toxic effects of carbon tetrachloride | 55 ± 5 | 0.95 ± 0.88 | 9.90 ± 0.76 | 8.82 ± 0.69 | 9.90 ± 0.76 | 8.82 ± 0.69 | 12.85 ± 0.66 | 12.1 ± 0.36 | 12.85 ± 0.66 | Glutathione concentration in liver, young rats, time 0 [7, 20]: 12.1 ± 0.36 GSH ng/mg protein
2 | CCC(=O)O[C@H](CC(=O)[O-])C[N+](C)(C)C [PC, Propionyl L-carnitine] | 20.2 ± 1.9 | small efficacy | 185 ± 7.1 | no such protection | 10/10 | 10/10 | 6/10 | fairly good protective effect | 88.5 ± 11.5 | 70 ± 7 | capable of reducing the toxic effects of carbon tetrachloride | 70 ± 7 | 0.70 ± 0.54 | 9.3 ± 0.46 | 7.9 ± 0.51 | 9.3 ± 0.46 | 7.9 ± 0.51 | 12.90 ± 0.71 | 11.25 ± 0.41 | 12.90 ± 0.71 | Glutathione concentration in liver, young rats, time 0 [7, 20]: 11.25 ± 0.41 GSH ng/mg protein

— patent US6306392A, “Composition comprising a carnitine and glutathione, useful to increase the absorption of glutathione and synergize its effects” (Sigma-Tau Healthscience S.p.A., priority 1999, dated 2001)
